Test results taken from patent publication EP2601963B1, “N-ISOVALEROYL-L-GLUTAMYL-L-TRYPTOPHAN AS AN AGENT INHIBITING THE FORMATION OF ULCERS IN THE STOMACH AND THE DUODENUM” (Obshestvo S Ogranichennoj Otvetstvennostju "CytoNIR", priority 2010, dated 2015).

Columns and labels:
Format in all cases: in vivo, male Wistar rats
[1] = system: indomethacin-induced gastric ulcers; assay: Indomethacin-induced ulcer model, preventive treatment: gastric lesions; set-up: key to GA1 (gastroprotective activity calculated for number of lesions): GA1 = PI of control group / PI of experimental group; key to GA2 (gastroprotective activity calculated for lesion size): GA2 = UI of control group / UI of experimental group; key to Ulcer Index: UI = average lesion area size x % of animals with lesions/100; Small round Size / Total Size / Large round Size / Linear Size / Lesion Size: unit not given here
Method: (§1) All studies were conducted on male Wistar rats weighing 220 ± 20 g, obtained from Rappolovo nursery (Leningrad oblast). For 14 days prior to the experiment, the animals were held in isolation. The animals were handled in accordance with the European Convention for the Protection of Vertebrate Animals used for Experimental and Other Scientific Purposes (Strasburg, 1986). The animals were held in standard plastic cages and fed a standard diet of PK120-3 (granulated feed in accordance with order # 1179 M3 USSR 10/10/1983) with a free access to water.
(§2) Animals' body weight changes were monitored throughout the experiment. The experimental animals were then sacrificed by decapitation, and their blood was collected in test tubes. The stomachs were extracted, dissected along the major curve, rinsed with cold saline solution, and the mucosa was carefully examined through a magnifying glass under bright lights. The mucosa was inspected for color, the presence of hyperemia and its intensity. The number of lesions, which were differentiated into small round (less than 1 mm), linear, and large lesions (more than 1mm) and the size of the area they covered were calculated. The average number of lesions per one animal in a group and the percentage of animals with ulcers were also calculated. Pauls Index (PI) was used as an integral indicator of the number of lesions and was calculated as follows: • PI = average number of lesions in a group x % of animals with lesions/100 [Pauls F., Wick A.M.,Mac. Key E.M. et al. An assau method for anti ulcer substances // Gastroenterology.- 1947. #8.- p.p.774 - 782]. Ulcer index UI was calculated as: UI = average lesion area size in the group x % of animals with lesions/100; gastroprotective activity GA1 was calculated as: GA1 = PI of the control group/PI of the experimental group, GA2 = UI of the control group/UI of the experimental group. The proposed drug was considered active when GA ≥ 2.
Five groups of 10 animals per group were prepared for the experiment as described in Example 1.
In each series of experiments, the animals were divided into experimental and control groups at 10 animals per group. The animals in the experimental group were orally administered the proposed medication or a comparator drug, and the control animals were given distilled water in the same amount. • control group received distilled water per os; • experimental group 1 received 0.1 mkg/kg N-isovaleroyl-L-glutamyl-L-tryptophan; • experimental group 2 received 10 mkg/kg N-isovaleroyl-L-glutamyl-L-tryptophan; • experimental group 3 received 200 mkg/kg of the comparator drug Sucralfate.
The efficacy of the course of preventive treatment with the claimed composition was evaluated 24 hrs. post indomethacin administration. The study was conducted as in Example 1.

[2] = system: stress-induced gastric ulcers; assay: Water-immersion stress model: gastric lesions, preventive treatment; conditions: 200 mg/kg + stress
Method: as §1
In each series, the animals were divided into experimental and control groups with 10 rats per group. The animals in the experimental groups were orally administered the claimed preparation or a comparator drug, and the control group animals received distilled water in the same amount.
The experimental animals were divided into 5 groups, 10 animals each. The animals received the following therapy: • control group received distilled water per os; • experimental group 1 received 0.1 mkg/kg N-isovaleroyl-L-glutamyl-L-tryptophan; • experimental group 2 received 10 mkg/kg N-isovaleroyl-L-glutamyl-L-tryptophan; […]; • experimental group 4 received 50 mkg/kg of the comparator drug Misoprostol;
The experiment was conducted as follows: • The proposed drug, comparator drugs, and distilled water were administered once daily over 7 days, and on the day of the ulcerogenic stress induction one hour prior to the stress.
The rats deprived of food for 18 hrs. were placed into special cases and immersed in water vertically to the level of their xyphoids. The animals were held in this position for 5 hrs. at 23° C water temperature. After that, the animals were removed from the experiment.
as §2

[3] = system: indomethacin-induced ulcers; assay: Indomethacin-induced ulcer model, therapeutic treatment: healing of gastric lesions; set-up: key to GA1 (gastroprotective activity calculated for number of lesions): GA1 = PI of control group / PI of experimental group; key to GA2 (gastroprotective activity calculated for lesion size): GA2 = UI of control group / UI of experimental group; key to Ulcer Index: UI = average lesion area in group × % animals with lesions / 100; Lesion Size: unit not given here
[4] = Indomethacin-induced ulcer model, therapeutic: survival; conditions: Indomethacin 30 mg/kg
Method: 2 ml/kg of the ulcerogenic dose of indomethacin equal to 30 mg/kg was administered intraperitoneally. The treatment started 24 hrs. post indomethacin administration and continued for 5 days. The animals in the experimental groups received N-isovaleroyl-L-glutamyl-L-tryptophan or the comparator drug Sucralfate, and the control group received distilled water.
On the 5th day, only 7 out of 10 animals in the control group survived, while in the group receiving VGT 9 out of 10 survived.

[5] = 200 mg/kg + stress (so in the source)
[6] = 200 mg/kg, indomethacin-induced ulcers
[7] = Indomethacin 30 mg/kg + 1 mkg/kg, treatment 5 days

aluminum complex of beta-D-fructofuranosyl-alpha-D-glucopyranoside octakis (hydrosulfate) [Sucralfate]
# Lesions [1, 5]: 5.4 ± 1.4
% Animals with Ulcers [1, 5]: 80%
GA1 (gastroprotective activity calculated for number of lesions) [1, 5]: 4.93
GA2 (gastroprotective activity calculated for lesion size) [1, 5]: 8.56
Lesion Size [1, 5]: 3.3 ± 1.2
PI [1, 5]: 4.32
Ulcer Index [1, 5]: 2.64
Large round Amount [1, 6]: 2.4 ± 0.8
Large round Size [1, 6]: 1.0 ± 0.4
Linear Amount [1, 6]: 1.2 ± 0.4
Linear Size [1, 6]: 1.8 ± 0.9
Small round Amount [1, 6]: 1.8 ± 0.6
Small round Size [1, 6]: 0.5 ± 0.2
Total Amount [1, 6]: 5.4 ± 1.4
Total Size [1, 6]: 3.3 ± 1.2
# Lesions [2]: 8.8 ± 1.4
% Animals with Ulcers [2]: 90%
GA1 (gastroprotective activity calculated for number of lesions) [2]: 2.79
GA2 (gastroprotective activity calculated for lesion size) [2]: 2.99
Large round Amt. [2]: 3.9 ± 0.8
Large round Size [2]: 2.4 ± 0.6
Lesion Size [2]: 7.5 ± 1.5
Linear Amt. [2]: 2.5 ± 0.6
Linear Size [2]: 4.5 ± 1.0
Pauls Index [2]: 7.92
Small round Amt. [2]: 2.4 ± 0.7
Small round Size [2]: 0.7 ± 0.2
Total Amt. [2]: 8.8 ± 1.4
Total Size [2]: 7.5 ± 1.5
Ulcer Index [2]: 6.75

N-isovaleroyl-L-glutamyl-L-tryptophan [VGT preparation]
Pauls index lower than that of the control animals ([3]; 0.1 mkg/kg, treatment after Indomethacin): 2 times
# Lesions [3, 7]: 4.1 ± 0.8
% Animals with Ulcers [3, 7]: 100%
GA1 (gastroprotective activity calculated for number of lesions) [3, 7]: 2.0
GA2 (gastroprotective activity calculated for lesion size) [3, 7]: 2.6
Lesion Size [3, 7]: 12.3 ± 3.5
PI [3, 7]: 4.1
Ulcer Index [3, 7]: 12.3
GA2 (gastroprotective activity calculated for lesion size) ([3]; Indomethacin 30 mg/kg + 10 mkg/kg, treatment 5 days): 1.4
animals survived ([4]; 0.1 mkg/kg): 9 out of 10
animals survived ([4]; on the 5th day, control 7 out of 10): 9 out of 10
